# Reference: patent publication US9028856B2, “Synergistic pesticide compositions” (priority 2008, dated 2015)
# Marks after values point to notes of the source that are not given here.
# Tests used:
# Type in all cases: in vivo
# [1] = tested on: Culex quinquefasciatus mosquito; assay: USDA Petri Dish Method, 3 min exposure to treated glazed tile (twenty 4-6 day old females); details: Table 50, fipronil/adjuvant in acetone, glazed tile, 3 min exposure
# Method in brief: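 Twenty 4-6 day old female Culex quinquefasciatus exposed 3 minutes to overnight-dried acetone-applied treatment, then moved to untreated card; at least three replicates. Knockdown scored at intervals over 1–3 hours, sucrose provided, mortality at 24 hours.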
# [2] = tested on: bedbug (Cimex lectularius); assay: Contact efficacy against bedbugs on various surfaces (wood, PVC, wallpaper, mattress, glass); details: for efficacy on wood, PVC, wallpaper, mattress and glass (summary in words): Example 106, imidacloprid 0.008% or 0.0016% (30 and 6 mg a.i./m^2)
# Protocol: Adult Cimex lectularius, susceptible strain, were used. A solution of the active ingredient in acetone was prepared. In the same mode a complete […]. All these works were done under drawing off conditions. After evaporation of the acetone (30′) the dishes were closed by a glass lid and transferred into the test room.
# One day later ten bedbugs, anaesthetized with CO2, were counted into each dish. At regular intervals, knock down was recorded (cumulatively).
# The same methodology was used as was used in Example 105.
# spiders = assay: Spider control field trial on structures (spider counts in treated and untreated plots); details: imidacloprid ca. 22 mg AI per sq. m; deltamethrin ca. 12 mg AI per sq. m
# Source text: Replicated plots (e.g., 1 meter sq. or as site dictates) were defined for treatment and observations. All living spiders in this area were counted, and the trial was begun by sweeping down all webbing, being careful not to harm the resident spiders in the process. The combinations were applied in the very sites formerly occupied by the spiders. The sites were re-visited intermittently, and total number of spiders in treated and untreated plots were counted. The evaluations were continued until the control failed, or as long as was practical. All formulations were diluted in water before treatment. All imidacloprid treatments were applied to the plots at the same rate of ca. 22 mg AI per sq. m. of surface area; deltamethrin was applied at the label rate of ca. 12 mg AI per sq. m. of surface area and served as a positive control. All treatments were replicated in three plots.
# [3] = Glass, 0.008% imidacloprid (30 mg/m^2) in acetone
# [4] = Mattress, 0.0016% imidacloprid (6 mg/m^2) in acetone
# [5] = Mattress, 0.008% imidacloprid (30 mg/m^2) in acetone
# [6] = PVC, 0.0016% imidacloprid (6 mg/m^2) in acetone
# [7] = PVC, 0.008% imidacloprid (30 mg/m^2) in acetone
# [8] = Wallpaper, 0.0016% imidacloprid (6 mg/m^2) in acetone
# [9] = Wallpaper, 0.008% imidacloprid (30 mg/m^2) in acetone
# [10] = Wood, 0.0016% imidacloprid (6 mg/m^2) in acetone
# [11] = Wood, 0.008% imidacloprid (30 mg/m^2) in acetone
smiles,measurement,setting,value
N#Cc1nn(-c2c(Cl)cc(C(F)(F)F)cc2Cl)c(N)c1[S+]([O-])C(F)(F)F (centres unmarked) [Fipronil (.01%)],Average % Knockdown & Mortality after 30 min,[1],0%
same,Average % Knockdown & Mortality after 60 min,[1],0%
same,Average % Knockdown & Mortality after 2 hr,[1],0%
same,Average % Knockdown & Mortality after 3 hr,[1],0%
same,Average % Knockdown & Mortality after 24 hr,[1],48%
O=[N+]([O-])NC1=NCCN1Cc1ccc(Cl)nc1 [imidacloprid],"efficacy on wood, PVC, wallpaper, mattress and glass (summary in words)",[2],"No efficacy was found on wood, PVC, wallpaper and mattress"
same,"efficacy on wood, PVC, wallpaper, mattress and glass (summary in words)",[2]; listed as 0.008% imidacloprid,"On glass, 0.008% imidacloprid alone acted relatively fast and had killed all bed bugs within one day"
same,% knock down or moribund after 1 h,[2]; [3],0%
same,% knock down or moribund after 2 h,[2]; [3],100* %
same,% knock down or moribund after 4 h,[2]; [3],85%
same,% knock down or moribund after 6 h,[2]; [3],90%
same,% knock down or moribund after 1 d,[2]; [3],100%
same,% knock down or moribund after 2 d,[2]; [3],100%
same,% knock down or moribund after 6 d,[2]; [3],100%
same,% knock down or moribund after 1 h,[2]; [4],0%
same,% knock down or moribund after 2 h,[2]; [4],0%
same,% knock down or moribund after 4 h,[2]; [4],0%
same,% knock down or moribund after 6 h,[2]; [4],0%
same,% knock down or moribund after 1 d,[2]; [4],0%
same,% knock down or moribund after 2 d,[2]; [4],0%
same,% knock down or moribund after 6 d,[2]; [4],0%
same,% knock down or moribund after 1 h,[2]; [5],0%
same,% knock down or moribund after 2 h,[2]; [5],0%
same,% knock down or moribund after 4 h,[2]; [5],0%
same,% knock down or moribund after 6 h,[2]; [5],0%
same,% knock down or moribund after 1 d,[2]; [5],0%
same,% knock down or moribund after 2 d,[2]; [5],0%
same,% knock down or moribund after 6 d,[2]; [5],0%
same,% knock down or moribund after 1 h,[2]; [6],0%
same,% knock down or moribund after 2 h,[2]; [6],0%
same,% knock down or moribund after 4 h,[2]; [6],0%
same,% knock down or moribund after 6 h,[2]; [6],0%
same,% knock down or moribund after 1 d,[2]; [6],0%
same,% knock down or moribund after 2 d,[2]; [6],0%
same,% knock down or moribund after 6 d,[2]; [6],20%
same,% knock down or moribund after 1 h,[2]; [7],0%
same,% knock down or moribund after 2 h,[2]; [7],0%
same,% knock down or moribund after 4 h,[2]; [7],0%
same,% knock down or moribund after 6 h,[2]; [7],0%
same,% knock down or moribund after 1 d,[2]; [7],0%
same,% knock down or moribund after 2 d,[2]; [7],0%
same,% knock down or moribund after 6 d,[2]; [7],40%
same,% knock down or moribund after 1 h,[2]; [8],0%
same,% knock down or moribund after 2 h,[2]; [8],0%
same,% knock down or moribund after 4 h,[2]; [8],0%
same,% knock down or moribund after 6 h,[2]; [8],0%
same,% knock down or moribund after 1 d,[2]; [8],0%
same,% knock down or moribund after 2 d,[2]; [8],0%
same,% knock down or moribund after 6 d,[2]; [8],0%
same,% knock down or moribund after 1 h,[2]; [9],0%
same,% knock down or moribund after 2 h,[2]; [9],0%
same,% knock down or moribund after 4 h,[2]; [9],0%
same,% knock down or moribund after 6 h,[2]; [9],0%
same,% knock down or moribund after 1 d,[2]; [9],0%
same,% knock down or moribund after 2 d,[2]; [9],0%
same,% knock down or moribund after 6 d,[2]; [9],0%
same,% knock down or moribund after 1 h,[2]; [10],0%
same,% knock down or moribund after 2 h,[2]; [10],0%
same,% knock down or moribund after 4 h,[2]; [10],0%
same,% knock down or moribund after 6 h,[2]; [10],0%
same,% knock down or moribund after 1 d,[2]; [10],0%
same,% knock down or moribund after 2 d,[2]; [10],0%
same,% knock down or moribund after 6 d,[2]; [10],10%
same,% knock down or moribund after 1 h,[2]; [11],0%
same,% knock down or moribund after 2 h,[2]; [11],0%
same,% knock down or moribund after 4 h,[2]; [11],0%
same,% knock down or moribund after 6 h,[2]; [11],0%
same,% knock down or moribund after 1 d,[2]; [11],0%
same,% knock down or moribund after 2 d,[2]; [11],0%
same,% knock down or moribund after 6 d,[2]; [11],0%
same,suppression of spider populations relative to the untreated control (cross trial average),spiders,around 24.5%
N#Cc1nn(-c2c(Cl)cc(C(F)(F)F)cc2Cl)c(N)c1[S+]([O-])C(F)(F)F (centres unmarked) [Fipronil (.001%)],Average % Knockdown & Mortality after 30 min,[1],0%
same,Average % Knockdown & Mortality after 60 min,[1],0%
same,Average % Knockdown & Mortality after 2 hr,[1],0%
same,Average % Knockdown & Mortality after 3 hr,[1],0%
same,Average % Knockdown & Mortality after 24 hr,[1],2%
CC1(C)[C@H](C(=O)O[C@H](C#N)c2cccc(Oc3ccccc3)c2)[C@@H]1C=C(Br)Br [deltamethrin],suppression of spider populations relative to the untreated control (cross trial average),spiders,83.4%
